Columns and labels:
[1] = tested on: transgenic Drosophila expressing LRRK2-G2019S in dopamine (DA) neurons; test: Drosophila model climbing assay (negative geotaxis); format: in vivo; settings: significance compared to DMSO negative control
Description: Drosophila model was used to evaluate Examples in vivo. The GAL4/UAS system developed by Andrea Brand and Norbert Perrimon in 1993 [45] was used to generate transgenic Drosophila expressing LRRK2-G2019S in dopamine (DA) neurons. The system has two parts: the GAL4 gene, encoding the yeast transcription activator protein GAL4, and the UAS (Upstream Activation Sequence), an enhancer to which GAL4 specifically binds to activate gene transcription. This system takes advantage of the yeast GAL4 transcription factor, which binds specifically to the UAS.
To express LRRK2-G2019S in DA neurons, the UAS-Wild Type-LRRK2 and UAS-G2019S-LRRK2 transgenes were combined with the dopa decarboxylase (ddc)-GAL4 driver. The 10 μM GW5074 was used for the positive control. The negative control group was DMSO control (all compounds were dissolved in DMSO with 1:1000 dillution). The Drosophila were maintained at 25° C. on a 12 hour light-12 hour dark cycle. GW5074 was used as positive control.
The negative geotaxis assay was used to analyse the locomotors ability of the Drosophila. Twenty Drosophila from each vial and 4 vials for each group were performed the climbing assay weekly.
The tested Drosophila were transferred into a vertical plastic tube (15 cm tall, 1.5 cm in diameter). After 30 min of rest at room temperature, the Drosophila were gently tapped to the bottom of the tube, the numbers of Drosophila that could climb to or above the test line within 10 seconds were counted and the percent were calculated.
The climbing abilities were analysed based on three separate experiments for each vial and the data were analysed by GraphPad PRISM® 6.0 software.

[2] = target: LRRK2 (phospho S935) in Drosophila brain lysates (Homo sapiens (Human), UniProt Q5S007, G2019S); test: Drosophila model kinase assays at week 6; format: in vivo; settings: ratio of phosphate LRRK2 protein to Flag protein, significance compared to DMSO negative control
Sequence of LRRK2 (phospho S935) in Drosophila brain lysates (Q5S007 whole entry G2019S): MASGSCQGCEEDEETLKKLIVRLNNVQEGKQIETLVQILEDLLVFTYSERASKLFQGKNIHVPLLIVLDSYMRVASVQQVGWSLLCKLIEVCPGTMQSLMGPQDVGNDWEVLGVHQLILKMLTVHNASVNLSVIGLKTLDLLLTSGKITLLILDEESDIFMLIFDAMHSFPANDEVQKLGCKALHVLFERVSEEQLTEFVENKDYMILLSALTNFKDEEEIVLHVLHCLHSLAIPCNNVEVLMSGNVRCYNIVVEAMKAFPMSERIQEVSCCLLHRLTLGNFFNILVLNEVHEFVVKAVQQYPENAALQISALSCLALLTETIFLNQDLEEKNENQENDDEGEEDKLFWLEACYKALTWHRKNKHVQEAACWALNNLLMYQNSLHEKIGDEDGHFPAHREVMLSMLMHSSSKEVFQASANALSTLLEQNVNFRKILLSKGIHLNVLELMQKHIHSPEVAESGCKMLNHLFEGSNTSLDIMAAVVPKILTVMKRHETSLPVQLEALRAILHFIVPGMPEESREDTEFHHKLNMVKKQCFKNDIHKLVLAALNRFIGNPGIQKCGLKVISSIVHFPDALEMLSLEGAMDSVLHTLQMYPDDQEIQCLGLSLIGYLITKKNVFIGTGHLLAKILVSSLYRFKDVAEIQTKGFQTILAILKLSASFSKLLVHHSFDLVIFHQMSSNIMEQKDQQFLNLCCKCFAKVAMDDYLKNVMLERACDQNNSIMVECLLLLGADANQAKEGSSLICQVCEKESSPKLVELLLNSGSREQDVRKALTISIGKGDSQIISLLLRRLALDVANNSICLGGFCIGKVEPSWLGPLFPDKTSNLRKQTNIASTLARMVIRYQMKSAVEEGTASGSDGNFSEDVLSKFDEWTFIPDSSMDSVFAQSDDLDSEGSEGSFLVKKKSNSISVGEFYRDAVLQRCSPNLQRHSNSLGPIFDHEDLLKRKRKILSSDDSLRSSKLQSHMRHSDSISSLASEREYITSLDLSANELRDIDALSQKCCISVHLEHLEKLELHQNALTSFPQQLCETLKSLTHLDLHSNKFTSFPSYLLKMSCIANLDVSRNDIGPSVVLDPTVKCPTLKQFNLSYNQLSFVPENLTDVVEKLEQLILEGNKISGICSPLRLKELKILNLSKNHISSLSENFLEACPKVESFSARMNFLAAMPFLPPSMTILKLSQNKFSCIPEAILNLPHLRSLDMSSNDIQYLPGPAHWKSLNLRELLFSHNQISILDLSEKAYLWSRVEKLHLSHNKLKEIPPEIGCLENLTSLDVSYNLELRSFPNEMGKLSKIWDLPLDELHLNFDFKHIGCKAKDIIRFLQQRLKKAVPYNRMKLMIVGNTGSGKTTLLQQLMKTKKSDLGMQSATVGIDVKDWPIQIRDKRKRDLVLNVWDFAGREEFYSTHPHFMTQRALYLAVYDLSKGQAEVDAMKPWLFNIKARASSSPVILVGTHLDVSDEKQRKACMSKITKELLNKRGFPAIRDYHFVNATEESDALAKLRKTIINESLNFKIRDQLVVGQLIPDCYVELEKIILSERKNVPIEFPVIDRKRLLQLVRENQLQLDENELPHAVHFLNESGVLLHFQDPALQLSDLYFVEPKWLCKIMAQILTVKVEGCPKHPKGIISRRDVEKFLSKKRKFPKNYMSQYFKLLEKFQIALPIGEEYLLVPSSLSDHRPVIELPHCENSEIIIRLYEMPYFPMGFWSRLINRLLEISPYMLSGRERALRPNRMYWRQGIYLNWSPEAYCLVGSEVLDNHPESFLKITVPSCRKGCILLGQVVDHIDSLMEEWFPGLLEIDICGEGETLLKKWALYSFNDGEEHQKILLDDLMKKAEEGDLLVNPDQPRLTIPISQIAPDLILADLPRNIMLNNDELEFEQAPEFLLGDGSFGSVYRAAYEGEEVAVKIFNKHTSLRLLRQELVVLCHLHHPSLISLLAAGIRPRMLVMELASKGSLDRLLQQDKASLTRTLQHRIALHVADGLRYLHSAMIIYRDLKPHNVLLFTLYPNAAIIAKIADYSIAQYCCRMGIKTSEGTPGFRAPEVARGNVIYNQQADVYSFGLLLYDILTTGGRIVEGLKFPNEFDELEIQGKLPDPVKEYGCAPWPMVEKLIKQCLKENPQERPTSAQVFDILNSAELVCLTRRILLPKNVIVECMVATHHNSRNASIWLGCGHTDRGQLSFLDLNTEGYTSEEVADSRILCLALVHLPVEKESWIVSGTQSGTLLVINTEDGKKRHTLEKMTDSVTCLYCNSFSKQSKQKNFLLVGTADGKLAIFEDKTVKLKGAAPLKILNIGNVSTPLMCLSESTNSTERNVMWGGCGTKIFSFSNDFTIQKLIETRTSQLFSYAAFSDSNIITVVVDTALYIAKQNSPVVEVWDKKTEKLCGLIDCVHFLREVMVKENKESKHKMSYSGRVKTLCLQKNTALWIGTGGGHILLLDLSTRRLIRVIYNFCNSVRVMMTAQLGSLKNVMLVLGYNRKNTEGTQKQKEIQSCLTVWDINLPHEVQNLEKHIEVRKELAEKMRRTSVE
Description: The 10 μM GW5074 was used for the positive control. The negative control group was DMSO control (all compounds were dissolved in DMSO with 1:1000 dillution). The Drosophila were maintained at 25° C. on a 12 hour light-12 hour dark cycle. GW5074 was used as positive control [47].
The adult Drosophila heads were homogenized on ice, and the brain lysates were performed kinase reaction in kinase reaction buffer with ATP and DTT.
Then the lysates were electrophoresed through 12% SDS-PAGE gels and transferred to PVDF membranes (Millipore). The membranes were blocked in TBST with 5% skimmed milk for 1 hour at room temperature and then incubated in anti-LRRK2 pSer935 antibody (Abcam, ab133450) and anti-Flag antibody overnight at 4° C.
The proteins were detected with HRP-conjugated secondary antibodies and ECL detection reagents. The optical density of immunoblotting was analysed by Image J software and the ratio of phosphate LRRK2 protein compare to Flag protein were calculated and the data were analysed by GraphPad PRISM® 6.0 software.

c1cc2[nH]nc3c2c(n1)N(C1CCOCC1)CCC3 [Example 29, 6-(tetrahydro-2H-pyran-4-yl)-6,7,8,9-tetrahydro-2H-1,2,5,6-tetraazabenzo[cd]azulene]
Climbing Assay 3 weeks ([1]; 3 weeks): * (P < 0.05, compared to DMSO negative control)
Climbing Assay 4 weeks ([1]; 4 weeks): ** (P < 0.01, compared to DMSO negative control)
Climbing Assay 5 weeks ([1]; 5 weeks): * (P < 0.05, compared to DMSO negative control)
Climbing Assay 6 weeks ([1]; 6 weeks): * (P < 0.05, compared to DMSO negative control)
Kinase Assays [2]: * (P < 0.05, compared to DMSO negative control)

— US10918645B2 (LIFEARC, priority 2016, dated 2021)
